Reference: US8168650B2, “Therapeutic uses of bicyclic ligands of sigma 2 receptor” (priority 2006, dated 2012)
Entries after “also recorded” stand apart in the source; their conditions may differ. Like-named read-outs stand apart in the source and are kept apart here.

Assays:
[1] = biological target: T1, σ1 receptor (Cavia porcellus, UniProt Q60492)
Procedure: (§2) In vitro binding studies were conducted in order to determine the affinity of the target compounds at σ1 and σ2 receptors.
(§3) In this example, test compounds were dissolved in N,N-dimethylformamide (DMF), dimethylsulfoxide (DMSO) or ethanol and then diluted in 50 mM Tris-HCl, pH 7.4 buffer containing 150 mM NaCl and 100 mM EDTA. Membrane homogenates were made from guinea pig brain for σ1 binding assays and rat liver for σ2 binding assays. Membrane homogenates were diluted with 50 mM Tris-HCl buffer, pH 8.0, and incubated at 25° C. in a total volume of 150 μL in 96-well plates with the radioligand and test compounds with concentrations ranging from 0.1 nM to 10 μM. After incubation was completed, the reactions were terminated by the addition of 150 μL of ice-cold wash buffer (10 mM Tris-HCl, 150 mM NaCl, pH 7.4) using a 96-channel transfer pipette (Fisher Scientific, Pittsburgh, Pa.), and the samples harvested and filtered rapidly through 96-well fiberglass filter plate (Millipore, Billerica, Mass.) that had been presoaked with 100 μL of 50 mM Tris-HCl buffer, pH 8.0, for 1 h. Each filter was washed three times with 200 μL of ice cold wash buffer.
(§4) Ki values were calculated using the method of Cheng and Prusoff20 and represent mean values±SEM.

[2] = system: caspase-3/7; assay: Caspase-3/7 whole cell assay in MDA-MB-435 cells; format: cell-based, human; conditions: MDA-MB-435, 24 h
Procedure: FIG. 8 illustrates activation of caspase-3/7 in EMT-6 cells treated with the sigma-2 selective ligands, WC-II-26, SV119, or RHM-I-138. EMT6 cells were treated for 24 h with concentrations of 40 μM. MDA-MB-435 cells were treated with varying concentrations of sigma-2 selective ligands for 24 h. The highest level of caspase-3/7 activity was detected after 24 h in the presence of 80 μM SV119, 80 μM WC-II-26, and 50 μM RHM-I-138. The data are the mean±1 SEM of three independent experiments. p<0.05; * compared to the control.
(§1) Detection of intracellular cellular caspase-3/7 activity. The activation of endogenous caspase-3/7 by the sigma ligands was measured using the CellProbe HT caspase-3/7 whole cell assay (Beckman Coulter, Fullerton, Calif.). The cell permeable, nonfluorescent bisamide substrate, Z-DEVD-R110, was added to the intact cells to detect apoptosis. Upon specific cleavage by caspase-3/7, Z-DEVD-R110 is converted to a fluorescent compound, and the fluorescent signal can be measured as follows. After adding the substrate, Z-DEVD-R110, to the cells treated with a sigma ligand, the plate was incubated for an additional 1.5-2 hour, and the resulting fluorescence measured using a Victor 3 microplate fluorometer at excitation and emission wavelengths of 485 nm and 535 nm, respectively.

[3] = system: caspase-3/7; assay: Caspase-3/7 whole cell assay in EMT-6 cells; format: cell-based, mouse; conditions: EMT-6, 40 μM, 24 h
Procedure: as §1
In these experiments, to assess whether caspase-like activity was involved in the cytotoxic pathway, a caspase-3/7 whole cell assay was performed. This assay has advantages over other cell-based assays which use a cell lysate to monitor the activity of caspase-3/7. By not disrupting the cells, the whole cell assay tends to minimize the background noise contributed by non-specific protease activity in the cell lysates. Consequently, a greater specificity for the caspase-3/7 activity can be achieved with the whole cell assay. […] The accumulation of the fluorescent product was quantified using a fluorescence microplate reader. […]

[4] = system: pancreatic cancer cell lines (Panc-02, CFPAC-1, AsPC-1, Panc-1); assay: Apoptosis in pancreas cancer cell lines (TUNEL / cleaved caspase-3, flow cytometry); format: cell-based, mouse, human; conditions: 24 hours incubation
Procedure: Tumor cells were seeded at a density of approximately 0.2×10^6 cells per well in 12-well plates in 1.0 ml culture medium. Cells were split and pre-incubated at 37° C. in humidified 5% CO2 for more than 24 hours (Panc-02) and 48 hours (CFPAC-1, AsPC-1, Panc-1) to insure uniform growth conditions. Compounds were dissolved in DMSO and added to the culture medium at the concentrations indicated. The final concentration of DMSO in the cell culture medium was less than 1%. The cells were then incubated for 24 hours at 37° C. in humidified 5% CO2. The extent of apoptosis was subsequently measured as previously reported (Guelen, L., et al., Oncogene 2004, 23: 1153-1165). Briefly, staining was performed on trypsin-EDTA treated cultures that had been fixed with 1% paraformaldehyde and 90% methanol. Cell pellets were resuspended in TUNEL reagent (APO-BRDU kit, San Diego, Calif.) or cleaved caspase-3 antibody (Cell Signaling Technology, Inc. Boston, Mass.) and incubated overnight at room temperature (TUNEL) or 4° C. (cleaved caspase-3). After washing, cells were resuspended in fluorescein antibody or 7-AAD buffer and incubated for 1 hour at room temperature. Cell-associated fluorescence was determined using a flow cytometry (FACScan, BD Biosciences) and analyzed with CellQuest software (BD Biosciences).
At the highest dose tested (10 μM), all sigma-2 receptor ligands induced an additional 10-20% of the cells to undergo apoptosis (FIG. 15A). […] The pan-caspase inhibitor (Z-VAD-fmk) and caspase-3/7 inhibitor (DEVD-CHO) prevented sigma-2 receptor ligand-induced apoptosis in panc-02 cells, while the caspase-1 inhibitor (YVAD-CHO) had no effect (FIG. 15B).

[5] = Toxicity in treated mice (serum biochemistry, immunohistochemistry)
Procedure: Female C57BL/6 mice (8-12 weeks old) were purchased from the NCI and acclimated for at least 1 week before tumor implantation. […] For the survival study, mice (N=10 per group) were treated with sigma-2 receptor ligand at the stated concentration or vehicle control once a day for 5 days.

[6] = system: EMT-6 cells; assay: Colony formation assay on Doxorubicin-treated EMT-6 cells; format: cell-based, mouse
Procedure: This Example illustrates colony formation assay on Doxorubicin (“Dox”)-treated EMT-6 cells in the presence or absence of 2 μM WC-II-26. The structures of the sigma ligands used in this and subsequent examples are illustrated in FIG. 5 and FIG. 6.

[7] = biological target: T1, σ1 receptor; assay: biochemical
Procedure: as §2, §3, §4

[8] = system: Panc-02 tumor allografts; assay: In vivo apoptosis (FACS, active caspase-3) in tumor and organs of Panc-02 bearing mice
Procedure: Female C57BL/6 mice (8-12 weeks old) were purchased from the NCI and acclimated for at least 1 week before tumor implantation. All mice were injected in the right flank with 200 μl of a single cell suspension containing 1.0×10^6 Panc-02 cells. Treatment of the tumors started 2 weeks after tumor implantation when their size reached a mean diameter of 5-8 mm. To evaluate the effect of sigma-2 receptor ligands both systemically and on tumor in vivo, several mice were sacrificed after a single treatment. Necropsy was performed and single cell suspensions were prepared from retrieved organs. The extent of apoptosis in these cells was measured by FACS (described above).

[9] = system: EMT-6 cells; assay: TUNEL assay, enhancement of Dox-induced apoptosis in EMT-6 cells; format: cell-based, mouse
Procedure: In these experiments, a TUNEL assay was used to detect apoptotic cells with damaged DNA strands. […] Furthermore, EMT-6 cells treated with Dox at 30 nM yielded only 10% TUNEL-positive cells. However, when EMT-6 cells were treated with 2 μM WC-II-26 plus 30 nM Dox, the percentage of TUNEL-positive cells rose to 43.3%.

[10] = system: Panc-02 tumors; assay: Antitumor effect in vivo: tumor growth and survival, Panc-02 model; parameters: species or system C57BL/6 mice; conditions: listed as WC26
Procedure: Mean tumor diameter was measured three times each week.

T1 sequence (Q60492 whole entry): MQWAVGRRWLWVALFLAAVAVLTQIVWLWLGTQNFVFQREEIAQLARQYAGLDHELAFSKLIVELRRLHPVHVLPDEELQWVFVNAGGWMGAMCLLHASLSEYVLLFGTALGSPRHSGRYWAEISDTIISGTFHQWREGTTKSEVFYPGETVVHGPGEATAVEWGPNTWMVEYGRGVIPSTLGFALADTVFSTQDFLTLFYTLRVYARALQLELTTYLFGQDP

Compound: O[C@@H](CN1C2CCC1CC(c1ccccc1)C2)c1cccc(Br)c1 (stereo partly shown) [RHM-I-138]
- Ki [1]: 544 nM
- concentration at which the highest level of caspase-3/7 activity was detected [2]: 50 µM
- increase of endogenous caspase-3/7 activity compared with untreated cells [3]: 2 fold

Compound: COc1ccc(C)cc1NC(=O)OC1CC2CCCC(C1)N2CCCCCCN (stereo not shown) [SV119]
- concentration at which the highest level of caspase-3/7 activity was detected [2]: 80 µM
- apoptosis in all pancreas cancer cell lines tested [4]: dose-dependent apoptosis
- increase of endogenous caspase-3/7 activity compared with untreated cells [3]: 2 fold

Compound: COc1ccc(C)cc1NC(=O)O[C@H]1C[C@H]2CCC[C@@H](C1)N2Cc1ccc(N(C)C)cc1 [WC-II-26]
- concentration at which the highest level of caspase-3/7 activity was detected [2]: 80 µM
- acute, systemic toxicity based on blood chemistry parameters ([5]; 50 or 100 mg/kg once a day for five days): no acute, systemic toxicity
- acute toxicity on immunohistochemical evaluation of normal tissues ([5]; after WC26 treatment (data not shown)): no acute toxicity
- toxicity in serum biochemistry data ([5]; after systemic administration): no apparent toxicity
- effect on serum biochemistry at the highest dose tested ([5]; values still within reference ranges): elevated AST and depressed creatinine and glucose levels
- apoptosis in all pancreas cancer cell lines tested [4]: dose-dependent apoptosis
- number of colonies formed compared to control cells ([6]; EMT-6, 2 μM WC-II-26 alone): not changed significantly
- ability of survival reduced (% of control) ([6]; EMT-6, 2 μM WC-II-26 combined with 10 nM Dox): 38 % of control
- ability of survival reduced (% of control) ([6]; EMT-6, 2 μM WC-II-26 combined with 20 nM Dox): 77 % of control
- ability of survival reduced (% of control) ([6]; EMT-6, 2 μM WC-II-26 combined with 30 nM Dox): 86 % of control
- ability of survival reduced (% of control) ([6]; EMT-6, 2 μM WC-II-26 combined with 40 nM Dox): 92 % of control
- Ki [7]: 5.57 µM
- tumor cells active caspase-3 positive ([8]; single 2 mg dose, Panc-02 tumor allografts, p<0.0001): up to 50%
- apoptosis in pancreas and livers ([8]; systemic administration): < 10%
- apoptosis in brain, lung, kidney or spleen (active caspase-3, FACS) ([8]; systemic administration, any of the concentrations tested): did not induce apoptosis
- TUNEL-positive cells ([9]; EMT-6, 2 μM WC-II-26 alone): less than 5%
- TUNEL-positive cells ([9]; EMT-6, 2 μM WC-II-26 plus 30 nM Dox): 43.3%
- tumor growth / tumor size versus vehicle control ([10]; 50 or 100 mg/kg (1 or 2 mg/day) intraperitoneal once a day for five days): tumors shrank; also recorded: smaller tumors
- survival (tumor diameter 15 mm or ulceration as endpoint) ([10]; 50 or 100 mg/kg (1 or 2 mg/day) once a day for five days, p=0.002): significant survival benefit; also recorded: compared favorably
